Results from article PMC2771899, “Augmentation of Reverse Transcription by Integrase through an Interaction with Host Factor, SIP1/Gemin2 Is Critical for HIV-1 Infection” (PLoS ONE, 2009).
Values joined by “and” are separate entries in the source; they are usually repeats but may differ in a detail not shown here. Equal entries are not always repeated. Peptide text beside a SMILES is read from it. * marks the point of attachment. Cbz = O=C(OCc1ccccc1)*

What was measured:
[1] = system: recombinant SIP1 (rSIP1); test: In vitro binding assay, nickel-column pull-down; conditions: 10 µg rSIP1 with 10 µg His-IN, 2 h, 4°C, nickel agarose, anti-SIP1 Western blot
[2] = biological target: wild type HIV-1 integrase with V5 epitope (IN-V5, WT-V5) (HIV-1 (pNL4-3)); test: cross-linking
[3] = biological target: T1, IN-SIP1 mediated RT activity (Homo sapiens, UniProt O14893); test: In vitro RT assay, inhibition of IN-SIP1 mediated RT activity by peptide; type: biochemical, HIV-1; conditions: 35 fmol RT, 3.5 fmol His-IN, 50 fmol rSIP1; for Effect on IN-SIP1 mediated RT activity: cDNA relative to control
T1 construct: the SIP1 gene was amplified from pTRE-SIP1 (kindly provided by Dr. G. Dreyfuss) by PCR and cloned into BamHI and EcoRI sites of pGEX-6P-2; GST (N, cleaved yes); made in house; host or cells: E. coli BL21 (GST-SIP1), E. coli M15 (His-IN)
T1 sequence (O14893 1-280): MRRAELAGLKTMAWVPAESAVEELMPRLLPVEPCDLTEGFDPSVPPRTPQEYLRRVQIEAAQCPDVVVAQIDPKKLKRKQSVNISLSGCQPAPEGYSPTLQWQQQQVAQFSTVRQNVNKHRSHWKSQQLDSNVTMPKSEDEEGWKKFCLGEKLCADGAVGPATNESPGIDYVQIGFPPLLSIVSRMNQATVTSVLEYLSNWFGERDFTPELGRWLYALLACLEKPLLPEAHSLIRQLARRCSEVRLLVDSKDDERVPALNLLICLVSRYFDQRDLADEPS

[4] = system: rSIP1; test: Dot-blot binding of peptide to SIP1; conditions: 40 or 400 nmol peptide on nitrocellulose, rSIP1 (5 µg), anti-SIP1 antibody
[5] = system: HIVNL43-luc/VSV-G pseudotypes; type: cell-based, HIV-1
[6] = system: IN-SIP1 interaction (His-IN, rSIP1); test: Dot-blot inhibition of IN-SIP1 interaction by peptide; type: binding, HIV-1
[7] = biological target: full-length His-tagged HIV-1 integrase Y15A (HIV-1 (pNL4-3)); test: not stated; data not shown; in vitro, recombinant IN-Y15A
[8] = biological target: recombinant SIP1 (rSIP1) (UniProt O14893)
[9] = biological target: recombinant SIP1 (rSIP1) (UniProt O14893); remark: listed apart in the source
[10] = system: IN-V5; test: Expression level of IN-V5 in 293T cells by Western blotting
[11] = system: HIV-1 RT (GST-RTp66); test: In vitro RT assay, stimulation by IN and SIP1; type: biochemical; conditions: truncated IN, any dose; 35 fmoles RT; 42°C, 30 min; real-time PCR; P = 0.58∼0.98
Procedure: Figure 4 Augmentation of reverse transcription by HIV-1 IN and SIP1 in vitro. (A, B) The in vitro RT assay was carried out with 35 fmoles of HIV-1 RT (GST-RTp66) in the absence or presence of different amounts of full-length rIN (WT-IN). The truncated form of IN (IN1–70) that lack SIP1 binding domains was also tested in apparel as a control. The amount of HIV-1 cDNA was measured by real-time PCR using the HIV-1 R/U5 (A) or R/gag (B) primer pair. Significant augmentation (p<0.05) by WT-IN in the levels of HIV-1 cDNA compared with the level without IN (0 fmole) was indicated by asterisks. (C) The in vitro RT assay was carried out as described in (A) in either the absence or presence of […] of WT-IN, together with different amounts of rSIP1. (D) The in vitro RT assay was carried out with 3.5 fmoles of WT-IN (black bar) or IN1–70 (slash bar), in either the absence (−) or presence (+) of 50 fmoles of rSIP1. (E) The oligo(dT) cellulose resin was incubated with in vitro transcribed HIV-1 RNA for 1 h. After incubation, 10 µg of GST-RT in either the absence or presence of His-IN or rSIP1 was added and incubated for 2 h. After four washes with the IN storage buffer, precipitates were analyzed by immunoblot analysis using an anti-GST antibody.
For preparation of the viral RNA template for in vitro transcription, the DNA sequences corresponding to HIV-1 lentiviral genomic RNA (pCS-CDF-CG-PRE) were subcloned into pGEM-T vector (pGEM-CS-CDF). Then, the annealed oligonucleotides of TCGA(A)30G and TCGA(T)30C were inserted into the pGEM-CS-CDF vector at the Sal-I site for addition of the poly(A) tail (the pGEM-CS-CDF-PolyA). Synthesized HIV RNA with the poly(A) 30 tail were produced by in vitro transcription using RiboMAX™ Large Scale RNA Production System-T7 (Promega) with Ribo m^7 G Cap analog (Promega) to mimic the capped structure of mRNA. Transcription products of HIV-1 RNA (4.9 kb) were purified with spin columns MicroSpin™ G-25 Columns (American Biosciences), followed by gel-filtration using NAP-5 columns, (American Biosciences) and were used in the in vitro RT assay. The reverse transcription reactions were carried out in a final volume of 20 µl RT reaction buffer consisting of 50 mM Tris-HCl (pH 8.3), 75 mM KCl, 3 mM MgCl2, 10 mM DTT, 1 mM dNTPs, 0.04∼0.4 fmoles of HIV-1 RNA templates and 0.4∼4 fmoles of RNA primer, 3.5∼35 fmol HIV-1 RT (GST-RTp66). The reaction was carried out at 42°C for 30 min in either the absence or presence of different amount of His-IN and recombinant SIP1. The amount of the cDNA product was measured by real-time PCR using primers for the R/U5 or R/gag region.
Supplementary file pone.0007825.s004.pdf: Figure S4 Stoichiometry and order of IN and SIP1 for their stimulatory effect of cDNA synthesis. (A) The in vitro RT assay was carried out in the absence or presence of different amount of the His-IN (0.2 or 1 pmol) or recombinant SIP1 (0.2 or 1 pmol) as described in Figure 4. The amount of cDNA product was measured by real-time PCR using primers for HIV-1 R/U5 region. (B) The in vitro RT assay was carried out with 5 pmoles of His-IN in the absence or presence of different amount SIP1 (1 or 5 pmol). (C) The in vitro RT assay was carried out in the absence or presence of the His-IN and recombinant SIP1 with [α32P]dCTP and subjected to SDS-PAGE analysis in denatured condition. (D) In vitro RT assay was performed as described above, except that rIN with rRT and rSIP1 were pre-incubated on ice in different combinations and orders (inlet Table). Then, reaction was initiated by adding mixture containing the template RNA/PBS-primer and dNTPs. (0.10 MB PDF) Click here for additional data file.

1-270: His-tagged IN, the 18 amino acids from the C-terminal deleted
Binding to rSIP1 in vitro [1]: efficient interaction with rSIP1 in vitro

1-230: His-tagged IN deletion form
Binding to rSIP1 in vitro [1]: significantly restored binding of IN to rSIP1

wild type HIV-1 integrase with V5 epitope (IN-V5, WT-V5) (enzyme)
tetramer formation relative to control siRNA treated cells (SIP1 knock-down cells) [2]: 50%

1-220: His-tagged IN deletion form
Binding to rSIP1 in vitro [1]: significantly restored binding of IN to rSIP1

IN154–174: control peptide, residues of 154–174, contains a motif critical for the interaction with LEDGF/p75 (MNKELKKIIGQVRDQAEHLKT; Integrase; UniProt P04585 1301-1321, looked up, fragment) [reference compound]
Effect on IN-SIP1 mediated RT activity [3]: inhibitory effect was not evident | Direct binding of peptide to rSIP1 [4]: did not

IN231–251: synthetic peptide corresponding to the residues of 231–251 of HIV-1 IN
IC50, inhibition of IN-SIP1 mediated RT activity ([3]; 42°C, 30 min, 20 µl, real-time PCR): ~1 nmoles per reaction | Effect on IN-SIP1 mediated RT activity [3]: significantly reduced the IN-SIP1 mediated RT activity in a dose-dependent manner | Effect on HIV-1 infectivity [5]: did not significantly reduce HIV-1 infectivity | Direct binding of peptide to rSIP1 [4]: efficiently bound to rSIP1 | Peptide concentration that reduces His-WT binding to SIP1 to non-specific background levels ([6]; His-IN (10 µg) on nitrocellulose, 5 µg rSIP1): at least 50 µM | Interference with binding of full-length IN (His-WT) to SIP1 ([6]; His-IN (10 µg) on nitrocellulose, 5 µg rSIP1, peptide present): significantly interfered with the binding of the full-length IN (His-WT) to the SIP1 protein | Effect on IN-SIP1 interaction and its RT-stimulatory effects ([6]; summary statement): inhibit the IN-SIP1 interaction and its RT-stimulatory effects

1-90: His-tagged IN deletion form
Binding to rSIP1 in vitro [1]: significant binding to rSIP1

full-length His-tagged HIV-1 integrase Y15A (enzyme)
stoichiometry N [7]: 2

synthetic peptide IN60–80
HIV-1 infectivity (luciferase activity) in PMA-stimulated THP-1 cells with 100 µM peptide, relative to control; the pair blocked is IN with SIP1 [8]: 20 % of control and 25 % of control | IC50 of inhibition of the IN-SIP1 mediated RT activity in the in vitro reverse transcription assay (35 fmol RT, 3.5 fmol His-IN, 50 fmol rSIP1); the pair blocked is m2 with m15 (pmoles per reaction) [9]: 10

1-250: His-tagged IN deletion form
Binding to rSIP1 in vitro [1]: significantly reduced binding to rSIP1

1-240: His-tagged IN deletion form
Binding to rSIP1 in vitro [1]: significantly reduced binding to rSIP1

1-260: His-tagged IN deletion form
Binding to rSIP1 in vitro [1]: significantly reduced binding to rSIP1

synthetic peptide IN231–251
IC50 of inhibition of the IN-SIP1 mediated RT activity in the in vitro reverse transcription assay (35 fmol RT, 3.5 fmol His-IN, 50 fmol rSIP1); the pair blocked is m2 with m15 (nmoles per reaction) [9]: 1

1-70: His-tagged IN deletion form
Binding to rSIP1 in vitro [1]: did not bind to rSIP1

1-80: His-tagged IN deletion form
Binding to rSIP1 in vitro [1]: significant binding to rSIP1

1-60: His-tagged IN deletion form
Binding to rSIP1 in vitro [1]: did not bind to rSIP1

CC(C)C[C@@H](C=O)NC(=O)[C@H](CC(C)C)NC(=O)[C@H](CC(C)C)NC(=O)OCc1ccccc1 [MG132] (Cbz-Leu-Leu-Leu-aldehyde)
Effect of MG132 on level of WT-V5 ([10]; 10 µM MG-132): not changed | Effect of MG132 on expression level of IN mutants ([10]; 10 µM MG-132, Y15A-V5, K186Q-V5 and LL241,242AA-V5): restored the expression levels of the IN mutants | Effect of MG132 on level of IN-V5 in siSIP1-treated cells ([10]; siSIP1 treated): restored

1-100: His-tagged IN deletion form
Binding to rSIP1 in vitro [1]: significant binding to rSIP1

IN1–70: truncated HIV-1 IN that lacks the central and C-terminal domains
Effect on level of cDNA products (R/U5) [11]: no significant stimulatory effect at any dose
